One may read the EC50 as the concentration needed to bring the measured effect to its halfway point. A lower EC50 goes with greater potency.

Structures can show the parent of a compound that is named as a salt.

The target of this test is T1, human 5-HT4(a) (Homo sapiens, UniProt Q13639).
T1 construct: host or cells: GeneBlAzer HTR4-CRE-bla CHO-K1 cells
T1 sequence (Q13639 1-387 isoform Q13639-2): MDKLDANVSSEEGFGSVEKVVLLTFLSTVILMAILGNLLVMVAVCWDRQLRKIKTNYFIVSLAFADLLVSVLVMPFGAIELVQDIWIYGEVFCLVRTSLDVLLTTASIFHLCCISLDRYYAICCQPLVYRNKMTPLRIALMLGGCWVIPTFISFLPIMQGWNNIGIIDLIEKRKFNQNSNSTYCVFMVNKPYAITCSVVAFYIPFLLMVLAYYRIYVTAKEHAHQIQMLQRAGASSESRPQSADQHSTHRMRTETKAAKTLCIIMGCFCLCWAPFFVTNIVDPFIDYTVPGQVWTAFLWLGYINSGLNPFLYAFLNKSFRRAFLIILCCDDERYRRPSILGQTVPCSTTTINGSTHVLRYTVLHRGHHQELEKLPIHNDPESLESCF
Nature of the test: Evaluation of agonistic activity in CHO-K1 cells expressing human 5-HT4(a) (GeneBlAzer HTR4-CRE-bla CHO-K1, beta-lactamase reporter). It counts as cell-based. The following applies: CHO-K1 cells stably expressing human 5-HT4(a). An outline of the steps:
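GeneBlAzer HTR4-CRE-bla CHO-K1 cells, 10^4/well overnight, exposed 5 h to compounds at 8 concentrations in medium with 1% DMSO in the added solution. β-lactamase substrate 2 h in dark; 410 nm excitation, 465/535 nm emission ratio; EC50 by non-linear regression.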
For the compound `CCCc1cc(N2CC[C@H](NC(C)=O)C2)nc(Nc2ccc(C)c(N)c2)n1` [Example 292, (S)—N-{1-[2-(3-amino-4-methylphenylamino)-6-propylpyrimidin-4-yl]pyrrolidin-3-yl}acetamide], a half-maximal response (EC50) required 0.038 nM. The result for `CCCc1cc(N2CCC(NC(C)=O)C2)nc(Nc2ccc(N)c([N+](=O)[O-])c2)n1` (stereo not drawn) [Example 293] reads 0.0043 nM; that for `CCCc1cc(N2CCC(NC(C)=O)C2)nc(Nc2cccc(C#N)c2)n1` (stereo not drawn) [Example 294, N-{1-[2-(3-cyanophenylamino)-6-propylpyrimidin-4-yl]pyrrolidin-3-yl}acetamide], 0.076 nM.

In turn, `CCCc1cc(N2CCC(NC(C)=O)C2)nc(Nc2cccc([N+](=O)[O-])c2)n1` (stereo not drawn) [Example 295, N-{1-[2-(3-nitrophenylamino)-6-propylpyrimidin-4-yl]pyrrolidin-3-yl}acetamide] returned an EC50 of 0.048 nM. The result for `CCCc1cc(N2CCC(NC(C)=O)C2)nc(Nc2ccc(F)c([N+](=O)[O-])c2)n1` (stereo not drawn) [Example 296] reads 0.039 nM; that for `CCCc1cc(N2CCC(NC(C)=O)C2)nc(Nc2ccc(Cl)c([N+](=O)[O-])c2)n1` (stereo not drawn) [Example 297, N-{1-[2-(4-chloro-3-nitrophenylamino)-6-propylpyrimidin-4-yl]pyrrolidin-3-yl}acetamide], 0.028 nM; that for `CCCc1cc(N2CCC(NC(C)=O)C2)nc(Nc2cccc(C(F)(F)F)c2)n1` (stereo not drawn) [Example 301], 0.11 nM. For `CCCc1cc(N2CCC(NC(C)=O)C2)nc(Nc2cccc(Cl)c2)n1` (stereo not drawn) [Example 302] the value was 0.42 nM; for `CCCc1cc(N2CCC(NC(C)=O)C2)nc(Nc2cc(Cl)ccc2C)n1` (stereo not drawn) [Example 303], 0.12 nM; for `CCCc1cc(N2CCC(NC(C)=O)C2)nc(Nc2ccc(C)c(Cl)c2)n1` (stereo not drawn) [Example 304], 0.07 nM. For `CCCc1cc(N2CCC(NC(C)=O)C2)nc(Nc2cccc(SC)c2)n1` (stereo not drawn) [Example 305] the value was 0.18 nM; for `CCCc1cc(N2CCC(NC(C)=O)C2)nc(Nc2ccc3[nH]c(C(F)(F)F)nc3c2)n1` (stereo not drawn) [Example 307], 0.24 nM.

For `CCCc1cc(N2CCC(NC(C)=O)C2)nc(Nc2ccc3c(C)cc(=O)oc3c2)n1` (stereo not drawn) [Example 309], the response was half-maximal at 0.076 nM (EC50). The result for `CCCc1cc(N2CCC(NC(C)=O)C2)nc(Nc2cnc3ccccc3c2)n1` (stereo not drawn) [Example 310] reads 0.37 nM. The result for `CCCc1cc(N2CCC(NC(C)=O)C2)nc(Nc2ccc(N)c(C#N)c2)n1` (stereo not drawn) [Example 311] reads 0.019 nM; that for `CCCc1cc(N2CCC(NC(C)=O)C2)nc(Nc2ccc(F)c(N)c2)n1` (stereo not drawn) [Example 312], 0.023 nM; that for `CCCc1cc(N2CCC[C@H]2C)nc(Nc2ccc(Cl)c([N+](=O)[O-])c2)n1` [Example 313, (R)—N-(4-chloro-3-nitrophenyl)-4-(2-methylpyrrolidin-1-yl)-6-propylpyrimidin-2-amine], 0.078 nM.

Consider `CCCc1cc(N2CCC[C@H]2C)nc(Nc2cccc(SC)c2)n1` [Example 314], for which a half-maximal response (EC50) required 0.18 nM. For `CCCc1cc(N2CCC[C@H]2C)nc(Nc2ccc3cc[nH]c3c2)n1` [Example 315] the value was 0.028 nM.

`CCCc1cc(N2CCC[C@H]2C)nc(Nc2cccc(C(F)(F)F)c2)n1` [Example 316] showed a 50% effective concentration (EC50) of 0.21 nM.

With `CCCc1cc(N2CCC[C@H]2C)nc(Nc2ccc3c(C)cc(=O)oc3c2)n1` [Example 317], a half-maximal effect (EC50) was put at 0.14 nM. `CCCc1cc(N2CCC[C@H]2C)nc(Nc2ccc(C)c(Cl)c2)n1` [Example 318] registered a 50% effective concentration (EC50) of 0.16 nM. For `CCCc1cc(N2CCC[C@H]2C)nc(Nc2cccc([N+](=O)[O-])c2)n1` [Example 319] the value was 0.08 nM; for `CCCc1cc(N2CCC[C@H]2C)nc(Nc2ccc(F)c([N+](=O)[O-])c2)n1` [Example 320, (R)—N-(4-fluoro-3-nitrophenyl)-4-(2-methylpyrrolidin-1-yl)-6-propylpyrimidin-2-amine], 0.041 nM; for `CCCc1cc(N2CCC[C@H]2C)nc(Nc2ccc(C)c([N+](=O)[O-])c2)n1` [Example 321, (R)—N-(4-methyl-3-nitrophenyl)-4-(2-methylpyrrolidin-1-yl)-6-propylpyrimidin-2-amine], 0.044 nM. `CCCc1cc(N2CCC[C@H]2C)nc(Nc2ccc(F)c(C(F)(F)F)c2)n1` [Example 322] gave an EC50 of 0.15 nM.

For the compound `CCCc1cc(N2CCC[C@H]2C)nc(Nc2ccc(N)c(C(F)(F)F)c2)n1` [Example 323, (R)—N^1-[4-(2-methylpyrrolidin-1-yl)-6-propylpyrimidin-2-yl]-3-(trifluoromethyl)benzene-1,4-diamine], the EC50 came to 0.027 nM. Regarding `CCCc1cc(N2CCC[C@H]2C)nc(Nc2ccc(F)c(C#N)c2)n1` [Example 325], a half-maximal effect (EC50) was put at 0.085 nM. The result for `CCCc1cc(N2CCC[C@H]2C)nc(Nc2ccc(C)c(C#N)c2)n1` [Example 326] reads 0.028 nM; that for `CCCc1cc(N2CCC[C@H]2C)nc(Nc2ccc(N)c(C#N)c2)n1` [Example 327], 0.025 nM.

As for `CCCc1cc(N2CCC[C@H]2C)nc(Nc2ccc(N)c([N+](=O)[O-])c2)n1` [Example 328, (R)—N^1-[4-(2-methylpyrrolidin-1-yl)-6-propylpyrimidin-2-yl]-3-nitrobenzene-1,4-diamine], the EC50 was 0.017 nM. The result for `CCCc1cc(N2CCC[C@H]2C)nc(Nc2ccc3c(c2)N(C(C)=O)CC3)n1` [Example 329] reads 0.18 nM; that for `CCCc1cc(N2CCC[C@H]2C)nc(Nc2ccc(OC)c(N)c2)n1` [Example 331], 0.138 nM.

For the compound `CCCc1cc(N2CCC[C@H]2C)nc(Nc2ccc(Cl)c(N)c2)n1` [Example 332], a half-maximal response (EC50) required 0.046 nM. Compound `CCCc1cc(N2CCC[C@H]2C)nc(Nc2ccc(F)c(N)c2)n1` [Example 333] registered an EC50 of 0.024 nM. The result for `CCCc1cc(N2CCC[C@H]2C)nc(Nc2ccc(C)c(N)c2)n1` [Example 334] reads 0.085 nM. The result for `CCCCc1cc(N2CC[C@H](NC(C)=O)C2)nc(Nc2ccc(N)c([N+](=O)[O-])c2)n1` [Example 337] reads 0.0026 nM; that for `CCCCc1cc(N2CC[C@H](NC)C2)nc(Nc2ccc(N)c([N+](=O)[O-])c2)n1` [Example 338], 0.0032 nM; that for `CCCc1cc(N2CC[C@H](N)C2)nc(Nc2cc(N)cc(C(F)(F)F)c2)n1` [Example 342], 0.0055 nM. For `CCCc1cc(N2CC[C@H](N)C2)nc(Nc2ccc(Cl)c([N+](=O)[O-])c2)n1` [Example 344, (S)-4-(3-aminopyrrolidin-1-yl)-N-(4-chloro-3-nitrophenyl)-6-propylpyrimidin-2-amine dihydrochloride] the value was 0.0092 nM; for `CCCc1cc(N2CC[C@H](N)C2)nc(Nc2cccc(SC)c2)n1` [Example 345, (S)-4-(3-aminopyrrolidin-1-yl)-N-[3-(methylthio)phenyl]-6-propylpyrimidin-2-amine dihydrochloride], 0.062 nM. As to `CCCc1cc(N2CC[C@H](N)C2)nc(Nc2ccc3cc[nH]c3c2)n1` [Example 346], the concentration for a half-maximal effect (EC50) stood at 0.014 nM. `CCCc1cc(N2CC[C@H](N)C2)nc(Nc2cccc(C(F)(F)F)c2)n1` [Example 347, (S)-4-(3-aminopyrrolidin-1-yl)-6-propyl-N-[3-(trifluoromethyl)phenyl]pyrimidin-2-amine dihydrochloride] registered an EC50 of 0.03 nM. For `CCCc1cc(N2CC[C@H](N)C2)nc(Nc2cc(Cl)ccc2C)n1` [Example 348, (S)-4-(3-aminopyrrolidin-1-yl)-N-(5-chloro-2-methylphenyl)-6-propylpyrimidin-2-amine dihydrochloride] the value was 0.019 nM; for `CCCc1cc(N2CC[C@H](N)C2)nc(Nc2ccc(C)c(Cl)c2)n1` [Example 349, (S)-4-(3-aminopyrrolidin-1-yl)-N-(3-chloro-4-methylphenyl)-6-propylpyrimidin-2-amine dihydrochloride], 0.016 nM.

`CCCc1cc(N2CC[C@H](N)C2)nc(Nc2cccc([N+](=O)[O-])c2)n1` [Example 350, (S)-4-(3-aminopyrrolidin-1-yl)-N-(3-nitrophenyl)-6-propylpyrimidin-2-amine dihydrochloride] yielded an EC50 of 0.012 nM. For `CCCc1cc(N2CC[C@H](N)C2)nc(Nc2ccc(C)c([N+](=O)[O-])c2)n1` [Example 351, (S)-4-(3-aminopyrrolidin-1-yl)-N-(4-methyl-3-nitrophenyl)-6-propylpyrimidin-2-amine dihydrochloride] the value was 0.0035 nM; for `CCCc1cc(N2CC[C@H](N)C2)nc(Nc2ccc(N)c(C(F)(F)F)c2)n1` [Example 352], 0.0027 nM; for `CCCc1cc(N2CC[C@H](N)C2)nc(Nc2ccc(F)c(C#N)c2)n1` [Example 353, (S)-5-[4-(3-aminopyrrolidin-1-yl)-6-propylpyrimidin-2-ylamino]-2-fluorobenzonitrile dihydrochloride], 0.01 nM. The result for `CCCc1cc(N2CC[C@H](N)C2)nc(Nc2ccc(C)c(C#N)c2)n1` [Example 354, (S)-5-[4-(3-aminopyrrolidin-1-yl)-6-propylpyrimidin-2-ylamino]-2-methylbenzonitrile dihydrochloride] reads 0.003 nM; that for `CCCc1cc(N2CC[C@H](N)C2)nc(Nc2ccc(N)c(C#N)c2)n1` [Example 355], 0.007 nM; that for `CCCc1cc(N2CC[C@H](N)C2)nc(Nc2ccc(F)c(C(F)(F)F)c2)n1` [Example 357, (S)-4-(3-aminopyrrolidin-1-yl)-N-[4-fluoro-3-(trifluoromethyl)phenyl]-6-propylpyrimidin-2-amine dihydrochloride], 0.0065 nM. `CCCc1cc(N2CC[C@H](N)C2)nc(Nc2ccc(F)c([N+](=O)[O-])c2)n1` [Example 358, (S)-4-(3-aminopyrrolidin-1-yl)-N-(4-fluoro-3-nitrophenyl)-6-propylpyrimidin-2-amine dihydrochloride]: the half-maximal effective concentration (EC50) was 0.014 nM. For `CCCc1cc(N2CC[C@H](N)C2)nc(Nc2ccc(N)c([N+](=O)[O-])c2)n1` [Example 359] the value was 0.0021 nM.

These data come from patent US9890138B2, “Diaminopyrimidine derivatives and processes for the preparation thereof” (YUHAN CORPORATION, priority 2011, dated 2018).
